Measurements as given in PMC6792352, “Limited Chemical Structural Diversity Found to Modulate Thyroid Hormone Receptor in the Tox21 Chemical Library” (Environmental Health Perspectives, 2019).
Where a name gives a salt, the structure may show the parent alone.

Assay: in vitro
Details: rat, gh3-tre-luc cells

SMILES	CC50 at 24 h (AC50 (uM) modified / 1000) [µM]	other results
CC1(C)[C@H](C(=O)O[C@H](C#N)c2cccc(Oc3ccccc3)c2)[C@@H]1C=C(Cl)Cl [alpha-Cypermethrin]	> 90	–
C=C/C(C)=C/C/C=C(\C)CCC=C(C)C [alpha-Farnesene]	> 90	–
CC12CCC(C1)C(C)(C)C2=O (stereo not drawn) [alpha-Fenchone]	> 50	–
O=C(C(=O)c1ccco1)c1ccco1 [alpha-Furil]	> 90	–
CCCCCCC1CCOC1=O (stereo not drawn) [alpha-Hexyl-gamma-butyrolactone]	> 90	–
N#CC(O)c1ccccc1 (stereo not drawn) [alpha-Hydroxybenzeneacetonitrile]	–	CC50 at 24 h (AC50 (uM) modified / 1000, Tox21_110001=Tox21_200804, viability, 1 nM T3 present, 24 h): > 90 µM
CC(=O)/C=C/C1C(C)=CCCC1(C)C (stereo not drawn) [alpha-Ionone]	> 90	–
CC(=O)/C=C/[C@H]1C(C)=CC[C@@H](C)C1(C)C [alpha-Irone]	> 90	–
CC(=O)/C(C)=C/C1C(C)=CCCC1(C)C (stereo not drawn) [alpha-Isomethylionone]	> 90	–
O=C(O)CCC(=O)C(=O)O [alpha-Ketoglutaric acid]	> 90	–
OC[C@H]1O[C@H](O[C@@]2(CO)O[C@@H](O)[C@H](O)[C@@H]2O)[C@H](O)[C@@H](O)[C@@H]1O [alpha-L-Lyxo-hex-5-ulofuranosyl alpha-D-glucopyranoside]	> 50	–
NC(=O)CCCCC1CCSS1 (stereo not drawn) [alpha-Lipoic acid amide]	> 50	–
O=C(O)CCCCC1CCSS1 (stereo not drawn) [alpha-Lipoic acid]	> 90	–
CC(O)c1ccccc1 (stereo not drawn) [alpha-Methylbenzyl alcohol]	> 90	–
C=C(C)c1ccccc1 [alpha-Methylstyrene]	> 90	–
S=C=Nc1cccc2ccccc12 [alpha-Naphylisothiocyanate]	> 90	–
CC1=C2[C@H]3OC(=O)[C@@H](C)[C@@H]3CC[C@@]2(C)C=CC1=O [alpha-Santonin]	–	CC50 at 24 h (AC50 (uM) modified / 1000, Tox21_110001=Tox21_110445, viability, 1 nM T3 present, 24 h): > 50 µM
C[C@H]1CC[C@@H]2[C@@H](C)[C@H]3[C@H](C[C@H]4[C@@H]5CC=C6C[C@@H](O[C@@H]7O[C@H](CO)[C@H](O)[C@H](O[C@@H]8O[C@H](CO)[C@@H](O)[C@H](O)[C@H]8O)[C@H]7O[C@@H]7O[C@@H](C)[C@H](O)[C@@H](O)[C@H]7O)CC[C@]6(C)[C@H]5CC[C@]34C)N2C1 [alpha-Solanine]	–	CC50 at 24 h (AC50 (uM) modified / 1000, Tox21_110001=Tox21_111132, viability, 1 nM T3 present, 24 h): 17.5 µM; CC50 at 24 h (AC50 (uM) modified / 1000, Tox21_110001=Tox21_200104, viability, 1 nM T3 present, 24 h): 16.1 µM
CC1=CC=C(C(C)C)CC1 [alpha-Terpinene]	> 90	–
CC1=CC[C@@H](C(C)(C)O)CC1 [alpha-Terpineol]	> 90	–
CC(=O)OC(C)(C)C1CC=C(C)CC1 (stereo not drawn) [alpha-Terpinyl acetate]	> 90	–
CC(C)[C@]12CC(=O)[C@H](C)[C@H]1C2 [alpha-Thujone]	–	CC50 at 24 h (AC50 (uM) modified / 1000, Tox21_110001=Tox21_200868, viability, 1 nM T3 present, 24 h): > 90 µM
C[C@H]1CC[C@]2(NC1)O[C@H]1C[C@H]3[C@@H]4CC[C@H]5C[C@@H](O[C@@H]6O[C@H](CO)[C@H](O[C@@H]7O[C@H](CO)[C@@H](O)[C@H](O[C@@H]8OC[C@@H](O)[C@H](O)[C@H]8O)[C@H]7O[C@@H]7O[C@H](CO)[C@@H](O)[C@H](O)[C@H]7O)[C@H](O)[C@H]6O)CC[C@]5(C)[C@H]4CC[C@]3(C)[C@H]1[C@@H]2C [alpha-Tomatine]	2.38	–
Cc1c(C)c2c(c(C)c1O)CC[C@@](C)(CCC[C@H](C)CCC[C@H](C)CCCC(C)C)O2 [alpha-Vitamin E]	> 50	–

SMILES	CC50 at 24 h (AC50 (uM) modified / 1000) [µM]	other results
CC1CC(=O)O1 (stereo not drawn) [beta-Butyrolactone]	> 100	–
CC1=C(/C=C/C(C)=C/C=C/C(C)=C/C=C/C=C(C)/C=C/C=C(C)/C=C/C2=C(C)CCCC2(C)C)C(C)(C)CCC1 [beta-Carotene]	> 50	–
C=C1CC/C=C(\C)CC[C@@H]2[C@@H]1CC2(C)C [beta-Caryophyllene]	> 90	–
OC[C@@H](O)[C@H]1O[C@@H]2O[C@@H](C(Cl)(Cl)Cl)O[C@@H]2[C@H]1O [beta-Chloralose]	–	CC50 at 24 h (AC50 (uM) modified / 1000, Tox21_110001=Tox21_112370, viability, 1 nM T3 present, 24 h): > 50 µM
CC1=C(C=O)C(C)(C)CCC1 [beta-Cyclocitral]	> 90	–
OC[C@H]1O[C@@H]2O[C@H]3[C@H](O)[C@@H](O)[C@@H](O[C@H]4[C@H](O)[C@@H](O)[C@@H](O[C@H]5[C@H](O)[C@@H](O)[C@@H](O[C@H]6[C@H](O)[C@@H](O)[C@@H](O[C@H]7[C@H](O)[C@@H](O)[C@@H](O[C@H]8[C@H](O)[C@@H](O)[C@@H](O[C@H]1[C@H](O)[C@H]2O)O[C@@H]8CO)O[C@@H]7CO)O[C@@H]6CO)O[C@@H]5CO)O[C@@H]4CO)O[C@@H]3CO [beta-Cyclodextrin]	> 90	–
CCC(=O)O[C@H]1CC[C@H]2[C@@H]3CCc4cc(O)ccc4[C@H]3CC[C@]12C [beta-Estradiol 17-propionate]	26.8	–
Cl[C@H]1[C@H](Cl)[C@@H](Cl)[C@H](Cl)[C@@H](Cl)[C@@H]1Cl [beta-Hexachlorocyclohexane]	> 90	–
CC(=O)/C=C/C1=C(C)CCCC1(C)C [beta-Ionone]	> 90	–
C=C1CC[C@H]2C[C@@H]1C2(C)C [beta-Pinene]	> 90	–
O=C1CCO1 [beta-Propiolactone]	–	CC50 at 24 h (AC50 (uM) modified / 1000, Tox21_110001=Tox21_111026, viability, 1 nM T3 present, 24 h): > 50 µM
CC[C@H](CC[C@@H](C)[C@H]1CC[C@H]2[C@@H]3CC=C4C[C@@H](O)CC[C@]4(C)[C@H]3CC[C@]12C)C(C)C [beta-Sitosterol]	> 50	–
C=C(C)C1CCC(C)(O)CC1 (stereo not drawn) [beta-Terpineol]	> 90	–
CC(CCl)OC(C)CCl (stereo not drawn) [bis(2-Chloro-1-methylethyl) ether]	> 90	–
ClCOCCl [bis(Chloromethyl) ether]	> 90	–
CC(=O)OC/C=C(/C)CCC=C(C)C [cis-3,7-Dimethyl-2,6-octadien-1-yl acetate]	> 90	–
OCCN1CCN(CC/C=C2/c3ccccc3Sc3ccc(C(F)(F)F)cc32)CC1 [cis-Flupentixol]	12.1	–
C[C@@H]1CCC[C@H](C)N1 [cis-Nanophine hydrochloride]	> 20	–
C=CC(C)(O)CC/C=C(/C)CCC=C(C)C (stereo not drawn) [cis-Nerolidol]	> 90	–
C(=C/c1ccccc1)/c1ccccc1 [cis-Stilbene]	> 90	–
C=C(C)[C@H]1CC=C(C)C(=O)C1 [d-Carvone]	> 90	–
N[C@H](Cc1c[nH]c2ccccc12)C(=O)O [d-Tryptophan]	> 90	–
CCCC1CCCC(=O)O1 (stereo not drawn) [delta-Octanolactone]	> 90	–
CN1CCc2cc(Cl)c(O)cc2[C@H]2c3ccccc3CC[C@@H]21 [ecopipam]	17.4	–

SMILES	CC50 at 24 h (AC50 (uM) modified / 1000) [µM]	other results
CCCCC1CCCCC(=O)O1 (stereo not drawn) [epsilon-Decalactone]	> 90	–
CCC1CCC(=O)O1 (stereo not drawn) [gamma-Caprolactone]	–	CC50 at 24 h (AC50 (uM) modified / 1000, Tox21_110001=Tox21_300875, viability, 1 nM T3 present, 24 h): > 100 µM
OC[C@H]1O[C@@H]2O[C@H]3[C@H](O)[C@@H](O)[C@@H](O[C@H]4[C@H](O)[C@@H](O)[C@@H](O[C@H]5[C@H](O)[C@@H](O)[C@@H](O[C@H]6[C@H](O)[C@@H](O)[C@@H](O[C@H]7[C@H](O)[C@@H](O)[C@@H](O[C@H]8[C@H](O)[C@@H](O)[C@@H](O[C@H]9[C@H](O)[C@@H](O)[C@@H](O[C@H]1[C@H](O)[C@H]2O)O[C@@H]9CO)O[C@@H]8CO)O[C@@H]7CO)O[C@@H]6CO)O[C@@H]5CO)O[C@@H]4CO)O[C@@H]3CO [gamma-Cyclodextrin]	> 30	–
CCCCCCC1CCC(=O)O1 (stereo not drawn) [gamma-Decanolactone]	> 90	–
CCCCCCCCC1CCC(=O)O1 (stereo not drawn) [gamma-Dodecalactone]	> 90	–
CCCCCC1CCC(=O)O1 (stereo not drawn) [gamma-Nonanolactone]	> 90	–
COc1cc(/C=C/C(=O)O[C@H]2CC[C@]34C[C@]35CC[C@]3(C)[C@@H]([C@H](C)CCC=C(C)C)CC[C@@]3(C)[C@@H]5CC[C@H]4C2(C)C)ccc1O [gamma-Oryzanol]	> 50	–
CC1=CCC(C(C)C)=CC1 [gamma-Terpinene]	> 90	–
N[C@@H](CS)C(=O)O [l-Cysteine hydrochloride]	> 90	–
COc1cccc(C(=O)CCN[C@@H](C)[C@H](O)c2ccccc2)c1 [l-Oxyfedrine hydrochloride]	13.4	–
C=C(C)[C@@H]1CC=C(C=O)CC1 [l-Perillaldehyde]	> 90	–
NCCS(=O)(=O)O [l-Taurine]	29.5	–
N[C@@H](Cc1c[nH]c2ccccc12)C(=O)O [l-Tryptophan]	> 90	–
COC(=O)C1=C(C)NC(C)=C(C(=O)OC(C)(C)CN(C)CCC(c2ccccc2)c2ccccc2)C1c1cccc([N+](=O)[O-])c1 (stereo not drawn) [lercanidipine hydrochloride]	8.65	–
Cc1cccc(O)c1 [m-Cresol]	> 100	–
CC(=O)Oc1cccc(C)c1 [m-Cresyl acetate]	> 50	–
CNC(=O)Oc1cccc(C(C)C)c1 [m-Cumenyl methylcarbamate]	> 90	–
Cc1cccc(C)c1 [m-Xylene]	> 90	–
O[C@H]1[C@H](O)[C@@H](O)[C@H](O)[C@@H](O)[C@H]1O [myo-Inositol]	> 90	–
CCCCCC [n-Hexane]	> 90	–
CCCCCCCCCBr [n-Nonyl bromide]	–	CC50 at 24 h (AC50 (uM) modified / 1000, Tox21_110001=Tox21_202864, viability, 1 nM T3 present, 24 h): > 90 µM
CO[C@@H]1[C@H](OC(=O)NC(=O)CCl)CC[C@]2(CO2)[C@H]1[C@@]1(C)O[C@@H]1CC=C(C)C [o-(Chloroacetylcarbamoyl)fumagillol]	> 30	–
Cc1ccccc1O [o-Cresol]	–	CC50 at 24 h (AC50 (uM) modified / 1000, Tox21_110001=Tox21_202305, viability, 1 nM T3 present, 24 h): > 90 µM
